Test results as given in patent US20260207621A1 (Vividion Therapeutics, Inc., priority 2022, published 2026).

Tests used:
KEAP1 C151 = molecular target: T1, KEAP1 C151 (Homo sapiens, UniProt Q14145); assay: Nrf2 TMT measurement: in vitro TE50 for KEAP1 C151 (IA-DTB competition, targeted TMT mass spectrometry) in MDA-MB-468 cell lysate; assay type: binding; settings: in vitro target engagement of KEAP1 C151, targeted TMT, read-out: KEAP1_C151 TE50
T1 construct: treating 500 μg of cell lysate generated from MDA-MB-468 breast cancer cells with DMSO or compound; endogenous in cells; host or cells: MDA-MB-468 breast cancer cell lysate
T1 sequence (Q14145 whole entry): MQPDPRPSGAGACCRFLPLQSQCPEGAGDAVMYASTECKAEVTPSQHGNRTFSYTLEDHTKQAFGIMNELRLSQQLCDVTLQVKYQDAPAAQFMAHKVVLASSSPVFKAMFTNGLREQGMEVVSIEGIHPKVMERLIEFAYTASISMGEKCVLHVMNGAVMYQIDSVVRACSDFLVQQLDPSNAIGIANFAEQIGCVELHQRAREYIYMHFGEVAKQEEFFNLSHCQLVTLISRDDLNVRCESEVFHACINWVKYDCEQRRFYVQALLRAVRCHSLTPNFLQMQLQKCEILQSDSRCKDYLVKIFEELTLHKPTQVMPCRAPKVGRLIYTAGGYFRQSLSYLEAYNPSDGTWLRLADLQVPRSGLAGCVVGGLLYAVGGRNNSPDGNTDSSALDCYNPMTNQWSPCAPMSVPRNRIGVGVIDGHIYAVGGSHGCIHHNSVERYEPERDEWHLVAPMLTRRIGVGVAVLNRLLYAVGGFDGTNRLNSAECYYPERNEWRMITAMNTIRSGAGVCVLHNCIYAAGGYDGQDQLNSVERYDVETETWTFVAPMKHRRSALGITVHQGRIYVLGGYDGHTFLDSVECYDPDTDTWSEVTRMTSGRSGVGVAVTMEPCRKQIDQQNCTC
Method: In vitro TE50 values for KEAP_C151 were obtained by treating 500 μg of cell lysate generated from MDA-MB-468 breast cancer cells with DMSO or compound for 1 hour at room temperature followed by the addition of 200 μM IA-DTB (in DMSO) for one hour at room temperature. Samples were then precipitated by the addition of 8× ice cold acetonitrile and incubated at −80° C. for two hours. Protein was then pelleted by centrifugation (4,200 RPM, 45 min, 4° C.). The pelleted material was resuspended in 9M Urea, 50 mM ammonium bicarbonate and proteins were reduced and alkylated by the addition of DTT and iodoacetamide (10 and 30 mM, respectively). Following reduction and alkylation, samples were exchanged into 2M urea (Zeba spin desalting plates, Thermo Fisher) and digested with Trypsin. IA-DTB labeled peptides were isolated with streptavidin agarose resin. Enriched peptides were eluted by the addition of 50% acetonitrile (ACN) 0.1% Formic Acid (FA) and dried in a SpeedVac vacuum concentrator.
Dried peptides were resuspended in 0.2 M EPPS pH 8.5 and treated with 6.5 μL of 11-plex tandem mass tag (TMT) (8.3 μg/μL in dry ACN) for 2 hours at room temperature. Reactions were quenched by the addition of 6.5 μL of 5% Hydroxylamine. Samples were then combined and desalted on a Biotage Evolute express ABN plate (600-0010-PX01).
Targeted TMT. Targeted TMT measurements were collected using an Orbitrap LumosTribrid Mass Spectrometer (Thermo Scientific) coupled to an UltiMate 3000 Series Rapid Separation LC system and autosampler (Thermo Scientific Dionex). Peptides were eluted onto a custom C18 capillary analytical column (75-μm inner diameter fused silica, packed with Acclaim PepMap C18 resin (Thermo Scientific)) using an Acclaim PepMap 100 (Thermo 164535) loading column, and separated at a flow rate of 1.0 μl min−1. Data were acquired using a specific MS3-based TMT method targeting the peptide containing KEAP1 C151 (C(+324.2)[…], +3 charge state) where MS2 peptide fragmentation is triggered upon detection of the peptide precursor ion. Subsequent MS3 analysis was then performed using pre-selected peptide fragment ions that were isolated for fragmentation using synchronous precursor selection. RAW files were converted to MZXML format and searched with the SEQUEST algorithm using the MassPike software package. TMT quantitation was performed with a filter requiring at least ten summed signal-to-noise for control channels. Quantified signals were used for dose response curve-fitting and IC50 calculation using R's drc package.

Nrf2 = Nrf2 antagonism assay: ARE luciferase reporter in KYSE-70 cells; assay type: cell-based; settings: Homo sapiens, KYSE-70, KYSE-70 cells, positive Imax corresponds to Nrf2 antagonism, read-out: KYSE70 Cellular ARE Luciferase Imax (%)
From the text: NRF2 binds to a promoter region, antioxidant response element (ARE), to initiate expression of multiple genes. ARE luciferase reporter assays are used to test whether a ligand can activate or repress the expression of target genes using luciferase as a reporter gene.
KYSE-70 is an esophageal squamous cell carcinoma cell line with a Nrf2 mutation at amino acid position W24C. This mutation lowers the affinity between the E3 ligase that includes KEAP1 and Nrf2, resulting in a state in which the synthesis rate of new Nrf2 is faster than the E3's degradation rate of Nrf2, resulting in a “Nrf2 high” state. In KYSE-70 cells, genes are inserted directly after the ARE that trigger the expression of luciferase. Without a NRF2 antagonist in this modified KYSE70 cell line which has an inherently “NRF2 high state”, luciferase is expressed, and a signal is observed.
Nrf2 antagonists bind at C151 of KEAP1 and stabilize the E3 which results in an increased degradation rate of Nrf2. Increased degradation of Nrf2 results in less expression of luciferase, and therefore a less intense signal.
An IC50 is generated from the dose-response curve and an Imax. A positive Imax corresponds to Nrf2 antagonism. Imax >90% correlates with in vivo tumor grown inhibition. Compounds with Imax >50% were included in this description.

Row | SMILES | IC50 (KEAP1 C151) | Emax (Nrf2)
1 | C=CC(=O)N1CCOCC12COc1c(-c3ccccc3)cc(Cl)cc12 (racemic) [Compound 7, 1-(5-chloro-7-phenyl-2H-spiro[benzofuran-3,3′-morpholin]-4′-yl)prop-2-en-1-one] | 5260 nM | 55%
2 | C=CC(=O)N1CCS(=O)(=O)CC1c1cc(Cl)cc(C2CCOCC2)c1 (racemic) [Compound 28, 1-(3-(3-chloro-5-(tetrahydro-2H-pyran-4-yl)phenyl)-1,1-dioxidothiomorpholino)prop-2-en-1-one] | 150 nM | 50%
3 | C=CC(=O)N1CCS(=O)(=O)CC1c1cc(Cl)cc(-c2ccn(C)c(=O)c2)c1 (racemic) [Compound 29, 4-(3-(4-acryloyl-1,1-dioxidothiomorpholin-3-yl)-5-chlorophenyl)-1-methylpyridin-2(1H)-one] | 330 nM | 62%
4 | C=CC(=O)N1CCN(S(C)(=O)=O)CC1c1cc(Cl)cc(-c2ccnc(NC(C)=O)c2)c1 (single isomer, unassigned) [Compound 6, N-(4-(3-(1-acryloyl-4-(methylsulfonyl)piperazin-2-yl)-5-chlorophenyl)pyridin-2-yl)acetamide] | 2.6 nM | 58%
5 | C=CC(=O)N1CCN(S(C)(=O)=O)C[C@H]1c1cc(Cl)cc(-c2cc[nH]c(=O)c2)c1 (single isomer, unassigned) [Compound 15] | 22 nM | 57%
6 | C=CC(=O)N1CCN(S(C)(=O)=O)C[C@H]1c1cc(Cl)cc(-c2ccnc(N3CCCC3=O)c2)c1 (single isomer, unassigned) [Compound 16] | 2.2 nM | 62%
7 | C=CC(=O)N1CCN(C(C)=O)C[C@H]1c1cc(Cl)cc(-c2ncccn2)c1 (single isomer, unassigned) [Compound 17] | 96.3 nM | 65%
8 | C=CC(=O)N1[C@H](C)COC[C@H]1c1cc(Cl)cc(-c2ccnc(N3CCCC3=O)c2)c1 (single isomer, unassigned) [Compound 18] | 10 nM | 69%
9 | C=CC(=O)N1CCN(C(C)=O)C[C@H]1c1cc(Cl)cc(C2CCOCC2)c1 (single isomer, unassigned) [Compound 26] | 88 nM | 56%
10 | C=CC(=O)N1CCS(=O)(=O)CC1c1cc(Cl)cc(-c2ncccn2)c1 (single isomer, unassigned) [Compound 31, 1-(3-(3-chloro-5-(pyrimidin-2-yl)phenyl)-1,1-dioxidothiomorpholino)prop-2-en-1-one] | 36 nM | 66%
11 | C=CC(=O)N1CCS(=O)(=O)CC1c1cc(Cl)cc(-c2nnn(C)n2)c1 (single isomer, unassigned) [Compound 32, 1-(3-(3-chloro-5-(2-methyl-2H-tetrazol-5-yl)phenyl)-1,1-dioxidothiomorpholino)prop-2-en-1-one] | 63 nM | 52%
12 | C=CC(=O)N1CCOC[C@H]1c1cc(Cl)cc(-c2nc(N)nc(Cl)n2)c1 (single isomer, unassigned) [Compound 199] | – | 92%
13 | C=CC(=O)N1CCN(C(=O)C2CC2)C[C@H]1c1cc(Cl)cc(-c2ncc(N)cn2)c1 (single isomer, unassigned) [Compound 200] | – | 91%
14 | C=CC(=O)N1[C@H](c2cc(Cl)nc(-c3cc(N)ncn3)c2)COC[C@H]1C(F)F (single isomer, unassigned) [Compound 202] | – | 94%
15 | [2H]c1nc(N)nc(-c2cc(Cl)cc([C@@H]3COCCN3C(=O)C=C)c2)n1 (single isomer, unassigned) [Compound 208] | – | 94%
16 | C=CC(=O)N1CCOC[C@H]1c1cc(Cl)cc(-c2ncnc(NCCO)n2)c1 (single isomer, unassigned) [Compound 219] | – | 81%
17 | Nc1ncnc(-c2cc(Cl)cc([C@@H]3COCCN3C(=O)C=C3CC3)c2)n1 (single isomer, unassigned) [Compound 293] | – | 54%
18 | C=C(F)C(=O)N1CCOC[C@H]1c1cc(Cl)cc(-c2ncnc(N)n2)c1 (single isomer, unassigned) [Compound 297] | – | 58%
19 | C=CC(=O)N1C[C@@H](F)COC[C@H]1c1cc(Cl)nc(-c2cc(N)ncn2)c1 [Compound 198, 1-((3R,6R)-3-(2-(6-aminopyrimidin-4-yl)-6-chloropyridin-4-yl)-6-fluoro-1,4-oxazepan-4-yl)prop-2-en-1-one] | – | 93%
20 | C=CC(=O)N1[C@H](c2cc(Cl)nc(-c3cc(C)ncn3)c2)COC[C@H]1C(F)F [Compound 201, 1-((3R,5S)-3-(2-chloro-6-(6-methylpyrimidin-4-yl)pyridin-4-y1)-5-(difluoromethyl)morpholino)prop-2-en-1-one] | – | 93%

Continued, in another order:

Row | IC50 (KEAP1 C151) | SMILES | Emax (Nrf2)
21 | 410 nM | C=CC(=O)N1CCOCC1c1cc(Cl)cc(-c2ccccc2)c1 (racemic) [Compound 1, 1-(3-(5-chloro-[1,1′-biphenyl]-3-yl)morpholino)prop-2-en-1-one] | 56%
22 | 600 nM | C=CC(=O)N1CCCOCC1c1cc(Cl)cc(-c2ncnc(N)n2)c1 (racemic) [Compound 162, 1-(3-(3-(4-amino-1,3,5-triazin-2-yl)-5-chlorophenyl)-1,4-oxazepan-4-yl)prop-2-en-1-one] | 80%
23 | 10.7 nM | C=CC(=O)N1CCOC[C@H]1c1cc(Cl)cc(-c2cccc(NC(C)=O)c2)c1 (single isomer, unassigned) [Compound 2] | 52%
24 | 130 nM | C=CC(=O)N1CCOCC1c1cc(Cl)cc(C2CCOCC2)c1 (single isomer, unassigned) [Compound 5, 1-(3-(3-chloro-5-(tetrahydro-2H-pyran-4-yl)phenyl)morpholino)prop-2-en-1-one] | 70%
25 | 55 nM | C=CC(=O)N1CCOCC1c1cc(C#N)cc(-c2ncccn2)c1 (single isomer, unassigned) [Compound 8, 3-(4-acryloylmorpholin-3-yl)-5-(pyrimidin-2-yl)benzonitrile] | 53%
26 | 60.5 nM | C=CC(=O)N1CCOC[C@H]1c1cc(Cl)cc(-c2nnn(C)n2)c1 (single isomer, unassigned) [Compound 9] | 76%
27 | 22.8 nM | C=CC(=O)N1CCOC[C@H]1c1cc(Cl)cc(-c2ncccn2)c1 (single isomer, unassigned) [Compound 10] | 79%
28 | 67 nM | C=CC(=O)N1CCOCC1c1cc(Cl)cc(-c2cc[nH]c(=O)c2)c1 (single isomer, unassigned) [Compound 11, 4-(3-(4-acryloylmorpholin-3-yl)-5-chlorophenyl)pyridin-2(1H)-one] | 79%
29 | 3.9 nM | C=CC(=O)N1CCOC[C@H]1c1cc(Cl)cc(-c2ccnc(N3CCCC3=O)c2)c1 (single isomer, unassigned) [Compound 12] | 68%
30 | 50 nM | C=CC(=O)N1CCOC[C@H]1c1cc(Cl)cc(-c2ccn(C)c(=O)c2)c1 (single isomer, unassigned) [Compound 13] | 72%
31 | 144 nM | C=CC(=O)N1CCOCC1c1cc(Cl)cc(-c2ccnnc2)c1 (single isomer, unassigned) [Compound 14, 1-(3-(3-chloro-5-(pyridazin-4-yl)phenyl)morpholino)prop-2-en-1-one] | 55%
32 | 33 nM | C=CC(=O)N1CCOC[C@H]1c1cc(Cl)cc(-c2ncc(F)cn2)c1 (single isomer, unassigned) [Compound 19] | 84%
